Numbered stars: 1 amine (or outer) side, 2 acyl side, 3 side chain; on linkers, the order of the positions; unused ones are H or OH. Bridge positions count the residues as written; N and C are the ends. Square brackets hold non-standard residues; d marks the D form. Peptide text beside a SMILES is read from it. * marks the point of attachment. hPhe(3,5-F2-4-CF3) = N[C@@H](CCc1cc(F)c(C(F)(F)F)c(F)c1)C(=O)O; hPhe(3-Cl-4-CF3) = N[C@@H](CCc1ccc(C(F)(F)F)c(Cl)c1)C(=O)O; hPhe(3-F,4-CF3) = N[C@@H](CCc1ccc(C(F)(F)F)c(F)c1)C(=O)O; hPhe(4-CF3) = N[C@@H](CCc1ccc(C(F)(F)F)cc1)C(=O)O; 3Oxa8azabicyclo(3.2.1)octane = C1CC2COCC1N2*; NMePhe(4-Cl) = CN[C@@H](Cc1ccc(Cl)cc1)C(=O)O; NMeNle(6-CHF2) = CN[C@@H](CCCCC(F)F)C(=O)O; NMedβ3hAla = C[C@H](CC(=O)[*:2])N(C)[*:1]; NMeGly(cPent) = CN[C@H](C(=O)O)C1CCCC1; NMeCha = CN[C@@H](CC1CCCCC1)C(=O)O; Hyp = O=C(O)[C@@H]1C[C@@H](O)CN1; NMeChg = CN[C@H](C(=O)O)C1CCCCC1; NMeI = CC[C@H](C)[C@H](NC)C(=O)O; NMeT = CN[C@H](C(=O)O)[C@@H](C)O; NMeD = CN[C@@H](CC(=O)O)C(=O)O; NMeL = CN[C@@H](CC(C)C)C(=O)O; Ala(CN) = N#CC[C@H](N)C(=O)O; Chg = N[C@H](C(=O)O)C1CCCCC1; NMeNva = CCC[C@H](NC)C(=O)O; NMeV = CN[C@H](C(=O)O)C(C)C; d(β3hA) = C[C@@H](N)CC(=O)O; NMeS = CN[C@@H](CO)C(=O)O; NMeA = CN[C@@H](C)C(=O)O; NMeAib = CNC(C)(C)C(=O)O; Nle = CCCC[C@H](N)C(=O)O; Piperidide = C1CCN(*)CC1; Pyrrolidide = C1CCN(*)C1; Ac5c = NC1(C(=O)O)CCCC1; Aze = O=C(O)[C@@H]1CCN1; Abu = CC[C@H](N)C(=O)O; Aib = CC(C)(N)C(=O)O; Sar = CNCC(=O)O; Propyl = CCC*
What was measured:
[1] = target: protein-protein interaction between Kras and SOS1 (biotin-tagged human Kras loaded with GDP, His-tagged human SOS1) (Homo sapiens (Human), UniProt P01116, G12D); assay: Protein-protein interaction inhibition between Kras and SOS1 (KrasG12D-SOS PPI) using AlphaScreen; type: biochemical; details: AlphaScreen; biotin-tagged human Kras loaded with GDP, His-tagged human SOS1; read-out: KRAS G12D-SOS PPI IC50;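 also: kras produced in E. coli, Ni-coupled donor beads and streptavidin acceptor beads, excitation 680 nm with emission detected at 520–620 nm via singlet oxygen transfer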
[2] = test system: Human pancreatic cancer cell line AsPC-1 (G12D mutation Kras); assay: AsPC-1 cell growth inhibition (AsPC-1 CGI); type: cell-based; details: read-out: AsPC-1 cell growth inhibition, 50% growth inhibitory concentration (IC50 value); 96 hours, CellTiter-Glo, values classified in ranges
Description: Test compounds were serially dilated with dimethyl sulfoxide, and 200 nL was then dispensed to a U-bottom 96-well plate using Labcyte Echo. […] The cell suspension was dispensed to a. plate containing a test compound at 100 μL per well and incubated at 37° C. in a 5% carbon dioxide gas incubator. 96 hours later, 80 μL of CellTiter-Glo (Promega) was added to each well and fluorescence was measured.

Compound	IC50 [1]	IC50 [2]
CC[C@H](C)[C@@H]1NC(=O)[C@H](CC(C)C)N(C)C(=O)C[C@@H](C)N(C)C(=O)[C@H](CC(C)C)NC(=O)C(C)(C)N(C)C(=O)[C@H](CC(C)C)NC(=O)[C@H](CCc2ccc(C(F)(F)F)cc2)NC(=O)CN(C)C(=O)[C@H](CC2CCCCC2)N(C)C(=O)CN(C)C(=O)CN(C)C1=O [Compound 262] (cyclo(I[Sar][Sar][NMeCha][Sar][hPhe(4-CF3)]L[NMeAib]L[NMedβ3hAla][NMeL]))	43 nM	> 500 nM
CC[C@H](C)[C@@H]1NC(=O)[C@H]([C@@H](C)O)N(C)C(=O)C[C@@H](C(=O)N2CCCCC2)N(C)C(=O)[C@H](C(C)C)N(C)C(=O)C2(CCCC2)NC(=O)[C@@H]2CCCN2C(=O)[C@H](CCc2ccc(C(F)(F)F)c(Cl)c2)NC(=O)CN(C)C(=O)[C@H](CC2CCCCC2)N(C)C(=O)[C@@H]2CCN2C(=O)[C@H](C)N(C)C1=O [Compound 91] ([NMeT]I[NMeA][Aze][NMeCha][Sar][hPhe(3-Cl-4-CF3)]P[Ac5c][NMeV][NMeD]-Piperidide; lactam N-11)	1.5 nM	> 500 nM
CC(C)C[C@H]1C(=O)N[C@@H](C(C)C)C(=O)N(C)CC(=O)N(C)CC(=O)N(C)[C@@H](CC2CCCCC2)C(=O)N(C)CC(=O)N[C@@H](CCc2ccc(C(F)(F)F)c(F)c2)C(=O)N(C)[C@@H](CC(C)C)C(=O)NC(C)(C)C(=O)N(C)[C@@H](CC(C)C)C(=O)N[C@H](C)CC(=O)N1C [Compound 1511] (cyclo([Aib][NMeL][d(β3hA)][NMeL]V[Sar][Sar][NMeCha][Sar][hPhe(3-F,4-CF3)][NMeL]))	190 nM	> 500 nM
CC[C@H](C)[C@@H]1NC(=O)[C@H](CC(C)C)N(C)C(=O)C[C@@H](C(=O)N2CCCCC2)N(C)C(=O)[C@H](C2CCCCC2)N(C)C(=O)C2(CCCC2)NC(=O)[C@H](CCCCC(F)F)N(C)C(=O)[C@H](CCc2ccc(C(F)(F)F)c(Cl)c2)NC(=O)CN(C)C(=O)[C@H](CC2CCCCC2)N(C)C(=O)CN(C)C(=O)CN(C)C1=O [Compound 796] ([NMeL]I[Sar][Sar][NMeCha][Sar][hPhe(3-Cl-4-CF3)][NMeNle(6-CHF2)][Ac5c][NMeChg][NMeD]-Piperidide; lactam N-11)	9.3 nM	> 500 nM
CCC[C@H]1C(=O)N[C@@H]([C@@H](C)CC)C(=O)N(C)CC(=O)N(C)CC(=O)N(C)[C@@H](CC2CCCCC2)C(=O)N(C)CC(=O)N[C@@H](CCc2cc(F)c(C(F)(F)F)c(F)c2)C(=O)N2C[C@H](OCC)C[C@H]2C(=O)NC2(CCCC2)C(=O)N(C)[C@@H](C2CCCCC2)C(=O)N(C)[C@H](C(=O)N2CCCC2)CC(=O)N1C [Compound 1367] ([NMeNva]I[Sar][Sar][NMeCha][Sar][hPhe(3,5-F2-4-CF3)][Hyp](Et)[Ac5c][NMeChg][NMeD]-Pyrrolidide; lactam N-11)	0.65 nM	≤ 20 nM
CC[C@H](C)[C@@H]1NC(=O)[C@H](CC(C)C)N(C)C(=O)C[C@@H](C(=O)N(C)C)N(C)C(=O)[C@H]([C@@H](C)CC)N(C)C(=O)C2(CCCC2)NC(=O)[C@@H]2CCCN2C(=O)[C@H](CCc2ccc(C(F)(F)F)c(F)c2)NC(=O)CN(C)C(=O)[C@H](CC2CCCCC2)N(C)C(=O)[C@@H]2CCN2C(=O)[C@H](C)N(C)C1=O [Compound 999] ([NMeL]I[NMeA][Aze][NMeCha][Sar][hPhe(3-F,4-CF3)]P[Ac5c][NMeI][NMeD]-NMe2; lactam N-11)	1.7 nM	≤ 20 nM
CCCOC[C@H]1C(=O)N(C)CC(=O)N[C@@H](CCc2ccc(C(F)(F)F)c(F)c2)C(=O)N2CCC[C@H]2C(=O)NC2(CCCC2)C(=O)N(C)[C@@H]([C@@H](C)CC)C(=O)N(C)[C@H](C(=O)N(C)C)CC(=O)N(C)[C@@H](CC(C)C)C(=O)N[C@@H]([C@@H](C)CC)C(=O)N(C)[C@@H](C)C(=O)N2CC[C@H]2C(=O)N1C [Compound 316] ([NMeL]I[NMeA][Aze][NMeS](Propyl)[Sar][hPhe(3-F,4-CF3)]P[Ac5c][NMeI][NMeD]-NMe2; lactam N-11)	3.3 nM	≤ 20 nM
CC(C)C[C@H]1C(=O)N[C@@H](C2CCCCC2)C(=O)N(C)CC(=O)N(C)CC(=O)N(C)[C@@H](CCCCC(F)F)C(=O)N(C)CC(=O)N[C@@H](CCc2ccc(C(F)(F)F)c(F)c2)C(=O)N(C)[C@@H](CC(C)C)C(=O)NC(C)(C)C(=O)N(C)[C@@H](CC(C)C)C(=O)N[C@H](C)CC(=O)N1C [Compound 1460] (cyclo([Aib][NMeL][d(β3hA)][NMeL][Chg][Sar][Sar][NMeNle(6-CHF2)][Sar][hPhe(3-F,4-CF3)][NMeL]))	130 nM	> 500 nM
CC(C)C[C@H]1C(=O)N[C@@H](CC#N)C(=O)N(C)[C@@H](C)C(=O)N2CC[C@H]2C(=O)N(C)[C@@H](CC2CCCCC2)C(=O)N(C)CC(=O)N[C@@H](CCc2ccc(C(F)(F)F)c(Cl)c2)C(=O)N2CCC[C@H]2C(=O)NC2(CCCC2)C(=O)N(C)[C@@H](C(C)C)C(=O)N(C)[C@H](C(=O)N2CCCCC2)CC(=O)N1C [Compound 278] ([NMeL][Ala(CN)][NMeA][Aze][NMeCha][Sar][hPhe(3-Cl-4-CF3)]P[Ac5c][NMeV][NMeD]-Piperidide; lactam N-11)	25 nM	> 500 nM
CCCOC[C@H]1C(=O)N(C)CC(=O)N[C@@H](CCc2ccc(C(F)(F)F)c(Cl)c2)C(=O)N2CCC[C@H]2C(=O)NC2(CCCC2)C(=O)N(C)[C@@H](C2CCCC2)C(=O)N(C)[C@H](C(=O)N2C3CCC2COC3)CC(=O)N(C)[C@@H](CC(C)C)C(=O)N[C@@H]([C@@H](C)CC)C(=O)N(C)[C@@H](C)C(=O)N2CC[C@H]2C(=O)N1C [Compound 176] ([NMeL]I[NMeA][Aze][NMeS](Propyl)[Sar][hPhe(3-Cl-4-CF3)]P[Ac5c][NMeGly(cPent)][NMeD]-{3Oxa8azabicyclo(3.2.1)octane}; lactam N-11)	1.4 nM	≤ 20 nM
CC[C@@H]1NC(=O)[C@H](CC(C)C)N(C)C(=O)C[C@@H](C(=O)N2CCCCC2)N(C)C(=O)[C@H](C(C)C)N(C)C(=O)C2(CCCC2)NC(=O)[C@@H]2CCCN2C(=O)[C@H](CCc2ccc(C(F)(F)F)c(Cl)c2)NC(=O)CN(C)C(=O)[C@H](CC2CCCCC2)N(C)C(=O)[C@@H]2CCN2C(=O)[C@H](C)N(C)C1=O [Compound 1760] ([NMeL][Abu][NMeA][Aze][NMeCha][Sar][hPhe(3-Cl-4-CF3)]P[Ac5c][NMeV][NMeD]-Piperidide; lactam N-11)	32 nM	> 500 nM
CC[C@H](C)[C@@H]1NC(=O)[C@H](CC(C)C)N(C)C(=O)C[C@@H](C)N(C)C(=O)[C@H](CC(C)C)NC(=O)C(C)(C)N(C)C(=O)[C@H]([C@@H](C)CC)NC(=O)[C@H](CCc2ccc(C(F)(F)F)c(F)c2)NC(=O)CN(C)C(=O)[C@H](Cc2ccc(Cl)cc2)N(C)C(=O)CN(C)C(=O)CN(C)C1=O [Compound 332] (cyclo(I[NMeAib]L[NMedβ3hAla][NMeL]I[Sar][Sar][NMePhe(4-Cl)][Sar][hPhe(3-F,4-CF3)]))	210 nM	> 500 nM
CCCC[C@@H]1NC(=O)C(C)(C)N(C)C(=O)[C@H](CC(C)C)NC(=O)[C@H](CCc2ccc(C(F)(F)F)c(F)c2)NC(=O)CN(C)C(=O)[C@H](Cc2ccc(Cl)cc2)N(C)C(=O)CN(C)C(=O)CN(C)C(=O)[C@H]([C@@H](C)CC)NC(=O)[C@H](CC(C)C)N(C)C(=O)C[C@@H](C)N(C)C1=O [Compound 83] (cyclo(I[Sar][Sar][NMePhe(4-Cl)][Sar][hPhe(3-F,4-CF3)]L[NMeAib][Nle][NMedβ3hAla][NMeL]))	110 nM	> 500 nM
